Laboratory results published in patent publication US10111854B2, “Synthesis and use of amine-containing flavonoids as potent anti-leishmanial agents” (The Hong Kong Polytechnic University, priority 2014, dated 2018).

What was measured:
[1] = Cytotoxicity, L929 fibroblasts; format: cell-based, mouse; conditions: mouse
Procedure: (§1) IC50 values of known antileishmanials and the amine-containing flavonoid monomers of the present invention to promastigotes (L. amazonensis LV78, L major FV1, L. donovani HU3, L. donovani 39), macrophages (Raw 264.7 and PEM) and mouse fibroblast (L929) were determined. The anti-promastigotes activities and cytotoxicity of the amine-containing flavonoid monomers of the invention are shown in Table 1.

[2] = Cytotoxicity, peritoneal elicited macrophages (PEM); format: cell-based, mouse; conditions: mouse, Cytotoxicity IC50, PEM
Procedure: (§2) Mouse peritoneal elicited macrophages (PEM) were obtained as previously described (2). A round cover slip (12 mm in diameter) was placed into each well of 24-well culture plate. Mouse PEM were resuspended in supplemented DMEM media containing 10% heat inactivated FBS (v/v), 100 U/mL penicillin and 100 μg/mL streptomycin and seeded into each well at a cell density of 1×10^5 cells per 500 μL. Macrophages were allowed to attach overnight. Non-adherent cells were removed by gentle washing with un-supplemented DMEM media twice. Adherent macrophages were infected with late-log promastigotes at a parasite-to-macrophage ratio of 20:1 overnight at 37° C. with 5% CO2. Non-internalized promastigotes were removed by washing twice with un-supplemented DMEM media. Infected macrophages were further incubated in 500 μL of supplemented DMEM media in the presence or absence of FM for 72 hours at 37° C. After incubation, cover slips were stained with Giemsa and the percentage of macrophages infected and number of amastigotes per 100 macrophages was enumerated.
as §1

[3] = tested on: L. donovani Ld39 amastigotes (SSG-resistant); assay: Anti-amastigote activity in infected PEM, L. donovani Ld39; format: cell-based; conditions: for Selective index (a)/(c): IC50 RAW264.7 over IC50 L. donovani Ld39 amastigotes; for IC50: Leishmania donovani, 72 h, infected PEM, 3 days, Giemsa, SSG-resistant
Procedure: as §2
(§3) PEM cells were infected with late-log promastigotes (L. amazonensis LV78, L. braziliensis UA847, L. donovani HU3, L. donovani 39) for 24 hr at 37° C. Infected macrophages were then treated with various antileishmanials and incubated for 3 days at 37° C. After 3 days, the cover slips were stained with Giemsa. The number of amastigotes per 100 macrophages were determined and used to calculate IC50 values.

[4] = tested on: L. amazonensis LV78 promastigotes; assay: Anti-promastigote activity (MTS assay), L. amazonensis LV78; format: cell-based; conditions: Leishmania amazonensis, 72 hours
Procedure: (§4) Promastigotes of visceral L. donovani Ld39 and LdHU3, and cutaneous L. amazonensis LV78, L. braziliensis UA847 and L. major FV1 were employed in the study. All strains were cultured in Schneider's Drosophila Medium (Invitrogen), pH 6.9 supplemented with 10% (v/v) heat inactivated fetal bovine serum (Hyclone) with 4 mM glutamine (Sigma) and 25 μg/mL gentamicin solution (Invitrogen) at 27° C. for 4 days. RAW264.7 cells were cultured in supplemented DMEM media with 10% heat inactivated FBS and 100 U/mL penicillin and 100 μg/mL of streptomycin. They were maintained at 37° C. in a humidified atmosphere with 5% CO2. The cells were split constantly after a confluent monolayer has been formed. The cells were harvested by a cell scraper.
(§5) Anti-promastigote activity was determined according to previous procedures (1) by Cell Titer 96® Aqueous Assay (Promega) that employed a tetrazolium compound. Promastigotes were seeded into 96-well flat bottom microtiter plate at 1×10^5 cells per well in a final volume of 100 μL medium and incubated with a series of concentrations of synthetic FM. Parasites were incubated at 27° C. for 72 hours. After 72 hours of incubation, 10 μL of MTS:PMS mixture [MTS:2-(4,5-Dimethylthiazol-2-yl-)-5-[3-(carboxymethoxy)phenyl]-2-(4-sulfophenyl)-2H-tetrazolium); PMS: phenazine methosulfate both purchased from Sigma] was added into each well of microtiter plate. The plate was then incubated at 27° C. for 4 hours for color development. After 4 hours of incubation, the OD values were determined at 490 nm using automatic microtiter plate reader (Bio-Rad).
as §1

[5] = tested on: L. major FV1 promastigotes; assay: Anti-promastigote activity (MTS assay), L. major FV1; format: cell-based; conditions: Leishmania major, 72 hours
Procedure: as §4, §5, §1

[6] = tested on: L. donovani Ld39 promastigotes; assay: Anti-promastigote activity (MTS assay), L. donovani Ld39; format: cell-based; conditions: Leishmania donovani, 72 hours
Procedure: as §4, §5, §1

[7] = tested on: L. amazonensis LV78 amastigotes; assay: Anti-amastigote activity in infected PEM, L. amazonensis LV78; format: cell-based; conditions: Leishmania amazonensis, 72 h; infected PEM, 3 days, Giemsa
Procedure: as §2, §3

[8] = tested on: L. donovani HU3 amastigotes; assay: Anti-amastigote activity in infected PEM, L. donovani HU3; format: cell-based; conditions: Leishmania donovani, 72 h; infected PEM, 3 days, Giemsa; SSG-sensitive
Procedure: as §2, §3

[9] = tested on: L. donovani HU3 promastigotes; assay: Anti-promastigote activity (MTS assay), L. donovani HU3; format: cell-based; conditions: Leishmania donovani, 72 hours
Procedure: as §4, §5, §1

[10] = tested on: L. amazonensis LV78 promastigotes; assay: Reactive oxygen species (ROS) level, DCFDA, promastigotes; format: cell-based; conditions: 30 μM
Procedure: (§6) 50,000 RAW264.7 were seeded in each well of black 96-well plates overnight. Next day, RAW264.7 cells were pre-loaded with 10 μM dichlorofluorescein diacetate (DCFDA) (Abcam) for 1 hr at 37° C. with 5% CO2. A control of non-DCFDA stained cells was also included. The DCFDA-contained supplemented DMEM media was removed. The cells were re-suspended with 10 μM or 30 μM of respective tested compounds and positive control, tert-butyl hydroperoxide. In Leishmania, 1×10^7 promastigotes were also pre-loaded with 10 μM DCFDA at 27° C. for 1 hr. After removing the DCFDA-contained media, the promastigotes were seeded into black 96-well plate and incubated with 30 μM of respective compounds or positive control. The ROS level was determined at different periods of time including 2, 4, 6, 8, 20, 46 and 72 hr using microplate reader (excitation: 485 nm and emission: […]).
(§7) The ROS levels in both macrophage RAW264.7 and L. amazonensis promastigotes was measured by dichlorofluorescein diacetate (DCFDA) dye which is permeable to the cells. With oxidative stress, DCFDA would be oxidized to fluorescent DCF which is an indicator of intracellular ROS level. RAW cells or L. amazonensis promastigotes were pre-loaded with 10 μM of DCFDA for 1 hr, washed and exposed to 39, FM09, pentamidine and amphotericin B for different period of time (2, 4, 6, 8, 20, 46 and 72 hr). The fluorescence level was measured at the 520 nm using 485 nm as an excitation wavelength. 0.1% DMSO or 0.3% DMSO was used as a solvent control. The fluorescent value has been subtracted from non-DCFDA stained cells. The values were presented as mean±standard error of mean.

RAW264.7 cells = assay: Reactive oxygen species (ROS) level, DCFDA, RAW264.7; format: cell-based, murine
Procedure: as §6, §7

Compound | IC50 [4] [µM] | IC50 [5] [µM] | IC50 [7] [µM] | IC50 [8] [µM] | IC50 [9] [µM] | IC50 [1] [µM] | IC50 [2] [µM] | IC50 [3] [µM] | IC50 [6] [µM] | other results
NC[C@@H]1O[C@H](O[C@H]2[C@@H](O)[C@H](O[C@@H]3[C@@H](O)[C@H](N)C[C@H](N)[C@H]3O[C@H]3O[C@H](CO)[C@@H](O)[C@H](O)[C@H]3N)O[C@@H]2CO)[C@H](N)[C@@H](O)[C@@H]1O [Paromomycin, reference compound] | – | – | – | – | – | – | > 100 | 41 ± 1.1 | 24.5 ± 2.4 | –
O=c1cc(-c2ccc(OCCN3CCN(Cc4ccccn4)CC3)cc2)oc2ccccc12 [FM01a, 2-(4-(2-(4-(pyridin-2-ylmethyl)piperazin-1-yl)ethoxy)phenyl)-4H-chromen-4-one] | 11.7 ± 1.34 | – | 8.74 ± 0.77 | 10 | 15.4 ± 5.98 | 60.3 ± 2.3 | – | – | – | –
CC(C)(C)OO [tert-butyl hydroperoxide] | – | – | – | – | – | – | – | – | – | L. amazon LV78 promastigote ROS Level, Relative fold (RF) ([10]; 2 hr): 1.4 fold; L. amazon LV78 promastigote ROS Level, Relative fold (RF) ([10]; 4 hr): 1.3 fold; L. amazon LV78 promastigote ROS Level, Relative fold (RF) ([10]; 6 hr): 1.4 fold; L. amazon LV78 promastigote ROS Level, Relative fold (RF) ([10]; 20 hr): 1.7 fold; L. amazon LV78 promastigote ROS Level, Relative fold (RF) ([10]; 46 hr): 1.5 fold; L. amazon LV78 promastigote ROS Level, Relative fold (RF) ([10]; 72 hr): 1.9 fold; RAW264.7 ROS Level, Relative fold (RF) (RAW264.7 cells; 10 μM, 2 hr): 2.3 fold; RAW264.7 ROS Level, Relative fold (RF) (RAW264.7 cells; 10 μM, 4 hr): 2.3 fold; RAW264.7 ROS Level, Relative fold (RF) (RAW264.7 cells; 10 μM, 6 hr): 2.2 fold; RAW264.7 ROS Level, Relative fold (RF) (RAW264.7 cells; 10 μM, 8 hr): 1.9 fold; RAW264.7 ROS Level, Relative fold (RF) (RAW264.7 cells; 10 μM, 20 hr): 1.8 fold; RAW264.7 ROS Level, Relative fold (RF) (RAW264.7 cells; 30 μM, 2 hr): 2.9 fold; RAW264.7 ROS Level, Relative fold (RF) (RAW264.7 cells; 30 μM, 4 hr): 2.9 fold; RAW264.7 ROS Level, Relative fold (RF) (RAW264.7 cells; 30 μM, 6 hr): 2.6 fold; RAW264.7 ROS Level, Relative fold (RF) (RAW264.7 cells; 30 μM, 20 hr): 1.9 fold; RAW264.7 ROS Level, Relative fold (RF) (RAW264.7 cells; 30 μM, 46 hr): 1.6 fold
O=C(COc1ccc(-c2cc(=O)c3ccccc3o2)cc1)N1CCN(Cc2ccncc2)CC1 [FM12, 2-(4-(2-oxo-2-(4-(pyridin-4-ylmethyl)piperazin-1-yl)ethoxy)phenyl)-4H-chromen-4-one] | > 100 | > 100 | > 10 | – | 25.4 ± 3.6 | > 100 | – | > 10 | 15 ± 2.2 | –
O=c1cc(-c2ccc(OCCOCCN(Cc3ncccn3)Cc3ncccn3)cc2)oc2ccccc12 [FM09d, 2-(4-(2-(2-(bis(pyrimidin-2-ylmethyl)amino)ethoxy)ethoxy)phenyl)-4H-chromen-4-one] | 35.3 ± 4.2 | – | > 10 | > 10 | 42.4 ± 7.65 | > 100 | > 100 | – | – | –
O=c1cc(-c2ccc(OCCC3CCN(Cc4ccccn4)CC3)cc2)oc2ccccc12 [FM05a, 2-(4-(2-(1-(pyridin-2-ylmethyl)piperidin-4-yl)ethoxy)phenyl)-4H-chromen-4-one] | 2.97 ± 0.91 | – | 3.57 ± 1.73 | 5.2 ± 1.68 | 7.43 ± 2.15 | 58.9 ± 23.3 | 17.6 | – | – | –

More lines, main results first:

IC50 [4] [µM] | IC50 [5] [µM] | IC50 [7] [µM] | IC50 [8] [µM] | IC50 [9] [µM] | Compound | IC50 [1] [µM] | IC50 [2] [µM] | IC50 [3] [µM] | IC50 [6] [µM] | other results
57.6 ± 37.3 | 59.8 ± 6.9 | – | – | – | NCCOCCOc1ccc(-c2cc(=O)c3ccccc3o2)cc1 [FM20, 2-(4-(2-(2-(amino)ethoxy)ethoxy)phenyl)-4H-chromen-4-one] | 41.5 ± 15.6 | 57.5 ± 9.2 | 0.7 ± 0.1 | 34.9 ± 14.1 | Selective index (a)/(c) [3]: 22.6
– | – | 4.46 ± 0.68 | 9.3 ± 0.56 | 25.3 ± 3.94 | O=c1cc(-c2ccc(OCCOCCNCc3ccccn3)cc2)oc2ccccc12 [FM09m, 2-(4-(2-(2-((pyridin-2-ylmethyl)amino)ethoxy)ethoxy)phenyl)-4H-chromen-4-one] | 23.9 ± 1.15 | 28.4 | – | – | –
31.4 ± 2.4 | 78.5 ± 11.3 | 6 ± 0.2 | – | 37.6 ± 2.8 | O=C(COc1ccc(-c2cc(=O)c3ccccc3o2)cc1)N1CCNCC1 [FM10, 2-(4-(2-oxo-2-(piperazin-1-yl)ethoxy)phenyl)-4H-chromen-4-one] | > 33 | – | > 10 | 49.5 ± 8 | –
> 100 | > 100 | > 10 | – | > 50 | O=C(COc1ccc(-c2cc(=O)c3ccccc3o2)cc1)N1CCN(C(=O)c2ccncc2)CC1 [FM16, 2-(4-(2-(4-isonicotinoylpiperazin-1-yl)-2-oxoethoxy)phenyl)-4H-chromen-4-one] | > 100 | – | 5.7 | 87.1 ± 13 | Selective index (a)/(c) [3]: >17.5; Selective index (a)/(c) ([3]; listed as 16): > 17.5
> 100 | > 100 | 7.1 ± 1.6 | – | 66.9 ± 9.7 | O=C(COc1ccc(-c2cc(=O)c3ccccc3o2)cc1)N1CCCNCC1 [FM11, 2-(4-(2-(1,4-diazepan-1-yl)-2-oxoethoxy)phenyl)-4H-chromen-4-one] | > 33 | – | > 10 | > 100 | –
2.8 | – | – | – | 2.4 | O=c1cc(-c2ccc(OCCOCCNC(c3ccccn3)c3ccccn3)cc2)oc2ccccc12 [FM09p, 2-(4-(2-(2-((di(pyridin-2-yl)methyl)amino)ethoxy)ethoxy)phenyl)-4H-chromen-4-one] | 2.1 | 12.5 | – | – | –
28.1 ± 5.24 | – | > 10 | > 10 | 18.1 ± 4.88 | O=c1cc(-c2ccc(OCCOCCN(Cc3ncccc3Cl)Cc3ncccc3Cl)cc2)oc2ccccc12 [FM09g, 2-(4-(2-(2-(bis((3-chloropyridin-2-yl)methyl)amino)ethoxy)ethoxy)phenyl)-4H-chromen-4-one] | 33.7 ± 10.6 | – | – | – | –
